The source of these data is patent US8680109B2, “Combination product comprising SRC kinase inhibitor AZDO530 and an antioestrogen or EGFR-TK-inhibitor” (AstraZeneca AB, priority 2004, dated 2014).

Molecules are shown by their SMILES.

For assay [1], the system named is MCF7 human breast cancer cells. The experiment in a line: Test (f) cell attachment assay. It is filed as cell-based. The protocol:
(f) Cell Attachment Assay
The wells of a 96-well plate were coated with Matrigel (50 μg/well) and air-dried overnight in a sterile tissue culture hood. Cells growing in log phase were harvested and adjusted to a concentration of 2×10^5 cells per ml in culture medium containing appropriate concentrations of inhibitor compounds (or combinations of inhibitor compounds). Aliquots of cells (2×10^4 cells) were seeded into each well and the plate was incubated at 37° C. for 30 minutes. The wells were washed twice with PBS to remove unbound cells prior to the addition to each well of 150 μl of MTT solution (0.5 mg/ml in serum-free medium). Plates were incubated for a further 4 hours at 37° C. to allow the development of […] crystals within the cells. The MTT solution was removed from the wells and the dye was extracted at 4° C. overnight with 10% TX-100 solution. The absorbance was measured with a Titerteck Multiskan ELISA plate reader (Flow Laboratories, UK) equipped with a 540 nm filter. Cell attachment in response to the treatments was calculated as a percentage of the cells adhered in the control (untreated) wells.

Assay [2] has as its system human tumour cell line A549. Description: Test (h) in vitro microdroplet migration assay. It is filed as cell-based. Conditions: read-out: activity, Test (h) (migratory inhibitory IC50). The protocol:
(h) In Vitro Microdroplet Migration Assay
This assay determines the ability of a test compound (or combination of test compounds) to inhibit the migration of adherent mammalian cell lines, for example the human tumour cell line A549.
RPMI medium (Sigma) containing 10% FCS, 1% L-glutamine and 0.3% agarose (Difco Catalogue No. 0142-01) was warmed to 37° C. in a water bath. A stock 2% aqueous agar solution was autoclaved and stored at 42° C. An aliquot (1.5 ml) of the agar solution was added to RPMI medium (10 ml) immediately prior to its use. A549 cells (Accession No. ATCC CCL185) were suspended at a concentration of 2×10^7 cells/ml in the medium and maintained at a temperature of 37° C.
A droplet (2 μl) of the cell/agarose mixture was transferred by pipette into the centre of each well of a number of 96-well, flat bottomed non-tissue-culture-treated microtitre plate (Bibby Sterilin Catalogue No. 642000). The plates were placed briefly on ice to speed the gelling of the agarose-containing droplets. Aliquots (90 μl) of medium which had been cooled to 4° C. were transferred into each well, taking care not to disturb the microdroplets. Test compounds were diluted from a 10 mM stock solution in DMSO using RPMI medium as described above. […]
Migration was assessed visually and the distance of migration was measured back to the edge of the agar droplet. […]

For assay [3], the system named is human and/or mouse carcinomas grown as tumours in athymic nude mice. Description: Test (i) in vivo xenograft growth assays. Conditions: AZD0530 used alone; oral once daily. The text has this:
(i) In Vivo Xenograft Growth Assays
This test measures the ability of combination product of the invention to inhibit the growth of human and/or mouse carcinomas grown as tumours in athymic nude mice. Suitable cancer cells for injection include human MCF7 breast cancer cells (obtainable from American Type Culture Collection, 10801 University Boulevard, Manassas, Va. 20110-2209; Cat. No. HTB-22), c-Src transfected mouse 3T3 fibroblast cancer cells (transfection with an activating mutant (Y530F) of human c-Src via a similar procedure to that described by Shalloway et al., Cell, 1987, 49, 65-73), human LoVo colorectal cancer cells (obtainable from European Collection of Cell Cultures, ECACC, CAMR, Salisbury, Wiltshire, SP4 0JG, UK; Cat. No. CCL 229), human CaLu-6 lung cancer cells (ATCC Cat. No. HTB-56) and human A549 NSCLC cancer cells (ATCC Cat. No. CCL185).
A total of about 1×10^6 human cancer cells in 0.1 ml of a 1:1 mixture of matrigel (Beckton Dickinson Catalogue No. 40234) and Eagle's Minimum Essential Medium (EMEM; Gibco Catalogue No 21090-022) were injected subcutaneously into a flank of each test mouse and the resultant tumours were allowed to grow for about 10 days. […] Tumour size was measured twice weekly using callipers and a theoretical volume was calculated. The effect on tumour growth was assessed.

Assay [4] concerns 'Tam-R' cells. Description: Test (e) cell invasion assay. The format is cell-based. Conditions: Homo sapiens, 72 h; read-out: IC50 versus 'Tam-R' cells, Test (e) cell invasion. The protocol: (§1) ‘Tam-R’ MCF7 breast cancer cells were maintained in phenol red-free RPMI medium supplemented with 5% charcoal-stripped, steroid-depleted foetal calf serum, antibiotics as above, glutamine (200 mM) and 4-hydroxytamoxifen (10^−7M in ethanol).
A modification of the method previously described by Hiscox et al. (Breast Cancer Research Treatment, 2000, 59, 245-254) was used to study the invasive nature of the breast cancer cells.
Transwell polycarbonate filter membrane inserts (6.5 mm diameter, 8 μm pore size from Costar Inc.) were placed in 24-well tissue-culture plates and were coated with Matrigel (0.4 μg/ml) at ambient temperature overnight in a sterile tissue culture hood. After rehydrating the wells with serum-free RPMI for 1 hour at 37° C., cells were seeded onto the membrane inserts at 5×10^4 cells/well with or without appropriate concentrations of inhibitor compounds (or combinations of inhibitor compounds) and 600 μl of culture medium was added such that the membrane inserts were immersed. The wells were cultured at 37° C. for 72 hours, after which the non-invasive cells and Matrigel were removed from the inside of the wells with a cotton swab. […] Cell invasion was quantified with a fluorescent microscope by viewing 5 separate fields per membrane at 2-fold magnification and counting the number of cells in each field. […]

For assay [5], the system named is MCF7 human breast cancer cells ('wild type', 'Tam-R', 'Tam/TKI-R'). Description: Test (a) cell growth studies. The following applies: MCF7, 168 h. It is filed as cell-based. The text has this: Various test methods have been described by Knowlden et al., Endocrinology, 2003, 144, 1032-1044 and include one or more of:— • (i) tamoxifen-responsive ‘wild type’ MCF7 human breast cancer cells; • (ii) an endocrine-insensitive variant of such MCF7 breast cancer cells that was designated ‘Tam-R’ (tamoxifen-resistant); and • (iii) a variant of such ‘TAM-R’ cells that was also insensitive to treatment with the EGFR TKI ZD1839 that was designated ‘Tam/TKI-R’.
Tamoxifen-responsive ‘wild type’ MCF7 breast cancer cells were routinely cultured in phenol red-free RPMI medium supplemented with 5% foetal calf serum plus penicillin (10 IU/ml), streptomycin (10 μg/ml) and fungizone (2.5 μg/ml). Cultures were maintained at 37° C. in a humidified atmosphere with 5% CO2. […]
Cell monolayers were grown for 7 days in serum growth factor free DCCM medium in the presence of increasing concentrations of the individual components of the above-mentioned combinations or with the combinations themselves. Cell population growth was evaluated by means of trypsin dispersion of the cell monolayers and cell number was measured using a Beckman Coulter counter (available from Beckman Coulter Limited, Luton, GB). […]

In assay [6] the test system is MCF7 human breast cancer cells. The experiment in a line: Test (b) time lapse analysis of cell motility. It is filed as cell-based. The protocol: (b) Time Lapse Analysis of Cell Motility
Cells were cultured in 6-well tissue-culture plates and allowed to reach log phase growth. Plates were transferred to the heated stage of an inverted microscope and cell cultures were overlaid with mineral oil to minimise pH changes in the medium during the cell motility analysis. Cell motility was recorded over a period of 6 hours using a video camera coupled to a time lapse video recording system. For quantitation of cell motility, images were captured at 10 minute intervals during video playback and the movement of at least 10 individual cells was tracked using Optimas image analysis software (Media Cybernetics UK, Finchampstead, Berkshire, GB). Cell movement was plotted as either cell position (x-position vs. y-position) or total distance migrated (μm) as a function of time. To determine the directional persistence of cell motility, paths of cells were plotted such that all paths start from the origin.

For assay [7], the system named is 'Tam-R' cells. Description: Test (d) fibronectin cell migration assay. It is filed as cell-based. The following applies: Homo sapiens, 20 h; read-out: IC50 versus 'Tam-R' cells, Test (d) fibronectin cell migration. The protocol: as §1
(d) Fibronectin Cell Migration Assay
The polycarbonate filter membranes of Transwell chambers (6.5 mm diameter, 8.0 μm pore size from Costar Inc., Cambridge, Mass., USA) were coated on the underside of the membrane with 50 μg/ml fibronectin in serum-free RPMI for 2 hours at 37° C. The polycarbonate membranes were rinsed once with PBS. Cells were harvested and resuspended at a concentration of 5×10^5 cells per ml in serum-free RPMI. Aliquots of cells (100 μl; 5×10^4 cells) were seeded into each well to which 500 μl of experimental medium had been added. In control experiments, cells were allowed to migrate toward the underside of the membrane for 20 hours. In test experiments, appropriate concentrations of inhibitor compounds (or combinations of inhibitor compounds) were added and cells were allowed to migrate toward the underside of the membrane for 20 hours. […] The number of migrating cells was counted at 20-fold magnification using an inverted microscope.

In assay [8] the test system is tamoxifen resistant MCF7 breast cancer cells. The following applies: cited from earlier work.

In the case of `CN1CCN(CCOc2cc(OC3CCOCC3)c3c(Nc4c(Cl)ccc5c4OCO5)ncnc3c2)CC1` [AZD0530, 4-(6-chloro-2,3-methylenedioxyanilino)-7-[2-(4-methylpiperazin-1-yl)ethoxy]-5-tetrahydropyran-4-yloxyquinazoline], the IC50 in assay [1] was 100 to 1000 nM; in assay [2] it was 100 to 5000 nM; in assay [4], around 100 nM; in assay [5] it was 100 to 5000 nM; in assay [6], 100 to 1000 nM; in assay [7] it was around 100 nM. Moreover, the “activity (active dose), Test (i) xenograft growth” value in assay [3] lay in the range of 1 to 200 mg/kg/day.
On to `COc1cc2ncnc(Nc3ccc(F)c(Cl)c3)c2cc1OCCCN1CCOCC1` [ZD1839, N-(3-chloro-4-fluorophenyl)-7-methoxy-6-(3-morpholinopropoxy)quinazolin-4-amine], for which, in assay [8], the “basal and TGFα stimulated growth” value is “could be inhibited”.
